Assay results taken from US10450270B2, “Glyoxamide substituted pyrrolamide derivatives and the use thereof as medicaments for the treatment of hepatitis B” (Janssen Sciences Ireland UC, priority 2013, dated 2019).

Tests used:
[1] = Cytotoxicity in HepG2 cells, Resazurin viability assay; conditions: human, HepG2 cells
HBV [2] = test: Anti-HBV activity, HepG2.2.15 stable transfected cell line, HBV DNA from secreted virions by realtime PCR; format: cell-based; conditions: Hepatitis B virus
HBV [3] = test: Anti-HBV activity, HepG2.117 inducible HBV producing cell line (Tet-off), intracellular HBV DNA by realtime PCR; format: cell-based; conditions: Hepatitis B virus
[4] = 144 h, HepG2.2.15 cells, 6 days of treatment, HBV DNA from secreted virions, read-out: HepG 2.2.15 EC50
[5] = 72 h, HepG2.117 cells, 3 days of treatment, intracellular HBV DNA, read-out: HepG2 117 EC50
[6] = HepG2.2.15, 144 h, read-out: HepG 2.2.15 EC50 (μM)
[7] = HepG2.117, 72 h, read-out: HepG2 117 EC50 (μM)

SMILES | CC50 at 4 days [1] | melting point | EC50 (HBV [2]; [4]) | EC50 (HBV [3]; [5]) | EC50 (HBV [2]; [6]) | EC50 (HBV [3]; [7])
Cn1cc(C(=O)C(=O)NC2(C)COC2)cc1C(=O)Nc1ccc(F)c(F)c1 [Compound 11, N-(3,4-difluorophenyl)-1-methyl-4-(2-(3-methyloxetan-3-ylamino)-2-oxoacetyl)-1H-pyrrole-2-carboxamide] | > 25000 nM | 180.7 °C | 0.05 µM | 0.096 µM |  | 
Cn1cc(C(=O)C(=O)NC(C)(C)C)cc1C(=O)Nc1ccc(F)c(F)c1 [Compound 10, 4-(2-(tert-butylamino)-2-oxoacetyl)-N-(3,4-difluorophenyl)-1-methyl-1H-pyrrole-2-carboxamide] | > 25000 nM | 170.7 °C | 0.072 µM | 0.042 µM |  | 
CC[C@@H](C)NC(=O)C(=O)c1cc(C(=O)Nc2ccc(F)c(C)c2)n(C)c1 [Compound 1, (R)-4-(2-(sec-butylamino)-2-oxoacetyl)-N-(4-fluoro-3-methylphenyl)-1-methyl-1H-pyrrole-2-carboxamide] | > 25000 nM | 136.5 °C | 0.014 µM | 0.1 µM |  | 
Cc1cc(NC(=O)c2cc(C(=O)C(=O)NC3(C)COC3)cn2C)ccc1F [Compound 4, N-(4-fluoro-3-methylphenyl)-1-methyl-4-(2-(3-methyloxetan-3-ylamino)-2-oxoacetyl)-1H-pyrrole-2-carboxamide] | > 25000 nM | 145.1 °C |  |  | 0.013 µM | 0.015 µM
Cc1cc(NC(=O)c2cc(C(=O)C(=O)N[C@H]3CCOC3)cn2C)ccc1F [Compound 6, (S)—N-(4-fluoro-3-methylphenyl)-1-methyl-4-(2-oxo-2-(tetrahydrofuran-3-ylamino)acetyl)-1H-pyrrole-2-carboxamide] | > 25000 nM | 155.7 °C |  |  | 0.047 µM | 0.19 µM
C[C@@H](NC(=O)C(=O)c1c(Cl)c(C(=O)Nc2ccc(F)c(C#N)c2)n(C)c1C1CC1)C(F)(F)F [Compound 31, 3-chloro-N-(3-cyano-4-fluoro-phenyl)-5-cyclopropyl-1-methyl-4-[2-oxo-2-[[(1R)-2,2,2-trifluoro-1-methyl-ethyl]amino]acetyl]pyrrole-2-carboxamide] | > 25000 nM |  | 0.012 µM | 0.019 µM |  | 
Cc1cc(NC(=O)c2cc(C(=O)C(=O)N[C@H](C)C(F)(F)F)cn2C)ccc1F [Compound 5, (R)—N-(4-fluoro-3-methylphenyl)-1-methyl-4-(2-oxo-2-(1,1,1-trifluoropropan-2-ylamino)acetyl)-1H-pyrrole-2-carboxamide] | > 25000 nM | 156.9 °C | 0.056 µM | 0.099 µM |  | 
Cc1c(C(=O)C(=O)N[C@H](C)C(F)(F)F)c(Cl)c(C(=O)Nc2ccc(F)c(C#N)c2)n1C [Compound 30, 3-chloro-N-(3-cyano-4-fluoro-phenyl)-1,5-dimethyl-4-[2-oxo-2-[[(1R)-2,2,2-trifluoro-1-methyl-ethyl]amino]acetyl]pyrrole-2-carboxamide] | > 25000 nM |  | < 0.004 µM | 0.003 µM |  | 
COC(=O)C(C)(C)NC(=O)C(=O)c1cc(C(=O)Nc2ccc(F)c(C)c2)n(C)c1 [Compound 7, methyl 2-(2-(5-(4-fluoro-3-methylphenylcarbamoyl)-1-methyl-1H-pyrrol-3-yl)-2-oxoacetamido)-2-methylpropanoate] | > 25000 nM | 161 °C |  |  | 0.21 µM | 0.058 µM
Cn1cc(C(=O)C(=O)NC2(C)COC2)cc1C(=O)Nc1cccc(C(F)(F)F)c1 [Compound 13, 1-methyl-4-(2-(3-methyloxetan-3-ylamino)-2-oxoacetyl)-N-(3-(trifluoro-methyl)phenyl)-1H-pyrrole-2-carboxamide] | > 25000 nM |  | 0.033 µM | > 1 µM |  | 
C[C@@H](NC(=O)C(=O)c1cc(C(=O)Nc2cc(F)c(F)c(Cl)c2)n(C)c1)C(F)(F)F [Compound 18, N-(3-Chloro-4,5-difluorophenyl)-1-methyl-4-(oxo{[(1R)-2,2,2-trifluoro-1-methylethyl]amino}acetyl)-1H-pyrrole-2-carboxamide] | > 25000 nM |  | 0.054 µM | 0.37 µM |  | 
Cc1cc(NC(=O)c2cc(C(=O)C(=O)NC(C)(C)C)cn2C)ccc1F [Compound 3, 4-(2-(tert-butylamino)-2-oxoacetyl)-N-(4-fluoro-3-methylphenyl)-1-methyl-1H-pyrrole-2-carboxamide] | > 25000 nM |  | 0.015 µM | 0.04 µM |  | 
Cc1cc(NC(=O)c2cc(C(=O)C(=O)N[C@H](C)CC#N)cn2C)ccc1F [Compound 9, 4-[{[(1R)-2-Cyano-1-methylethyl]amino}(oxo)acetyl]-N-(4-fluoro-3-methyl-phenyl)-1-methyl-1H-pyrrole-2-carboxamide] | > 25000 nM |  | 0.17 µM | 0.2 µM |  | 
Cc1c(C(=O)C(=O)NC(C)(C)C)c(Cl)c(C(=O)Nc2ccc(F)c(C#N)c2)n1C [Compound 32, 4-[2-(tert-butylamino)-2-oxo-acetyl]-3-chloro-N-(3-cyano-4-fluoro-phenyl)-1,5-dimethyl-pyrrole-2-carboxamide] | > 25000 nM |  | < 0.004 µM | < 0.004 µM |  | 
